Source: patent publication US8729224B2, “Melanocortin receptor-specific peptides for treatment of female sexual dysfunction” (Palatin Technologies, Inc., priority 2008, dated 2014)
pEC50, pKi: −log10 of the molar value.

Columns and labels:
hMC4-R [1] = target: T1, hMC4-R (Homo sapiens, UniProt P32245); experiment: Competitive inhibition binding assay using NDP-α-MSH, MC4-R; conditions: for pKi: competitive studies using NDP-α-MSH, human recombinant receptor, average of studies
T1 construct: expressed in transfected cells; host or cells: HEK-293
T1 sequence (P32245 whole entry): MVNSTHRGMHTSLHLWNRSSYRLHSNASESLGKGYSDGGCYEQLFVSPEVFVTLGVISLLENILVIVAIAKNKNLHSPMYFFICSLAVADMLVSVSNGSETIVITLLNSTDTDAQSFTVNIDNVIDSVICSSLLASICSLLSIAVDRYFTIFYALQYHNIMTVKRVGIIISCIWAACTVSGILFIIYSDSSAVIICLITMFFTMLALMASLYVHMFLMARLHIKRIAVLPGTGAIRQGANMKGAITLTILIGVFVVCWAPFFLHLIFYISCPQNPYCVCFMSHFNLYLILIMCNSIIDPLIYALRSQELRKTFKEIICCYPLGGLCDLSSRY
Protocol: A competitive inhibition binding assay is performed using membrane homogenates prepared from HEK-293 cells that express recombinant hMC4-R, hMC3-R, or hMC5-R, and from B-16 mouse melanoma cells (containing endogenous MC1-R). In some instances, HEK-293 cells that express recombinant hMC1-R were employed. In the examples that follow, all MC3-R, MC4-R and MC5-R values are for human recombinant receptors. MC1-R values are for B-16 mouse melanoma cells, unless the heading is “hMC1-R”, in which case the value is for human recombinant MC1-R. Assays were performed in 96 well GF/B Millipore multiscreen filtration plates (MAFB NOB10) pre-coated with 0.5% bovine serum albumin (Fraction V). Membrane homogenates were incubated with 0.2 nM (for hMC4-R) 0.4 nM (for MC3-R and MC5-R) or 0.1 nM (for mouse B16 MC1-R or hMC1-R) [I^125]-NDP-α-MSH (Perkin Elmer) and increasing concentrations of cyclic peptides of the present invention in buffer containing 25 mM HEPES buffer (pH 7.5) with 100 mM NaCl, 2 mM CaCl2, 2 mM MgCl2, 0.3 mM 1,10-phenanthroline, and 0.2% bovine serum albumin. After incubation for 60 minutes at 37° C., the assay mixture was filtered and the membranes washed three times with ice-cold buffer. Filters were dried and counted in a gamma counter for bound radioactivity. […] Maximal specific binding (100%) was defined as the difference in radioactivity (cpm) bound to cell membranes in the absence and presence of 1 μM NDP-α-MSH. […] Ki values for cyclic peptides of the present invention were determined using Graph-Pad Prism® curve-fitting software. […]
Alternatively, a competitive inhibition binding assay was performed employing Eu-NDP-α-MSH (PerkinElmer Life Sciences catalog No. AD0225) with determination by time-resolved fluorometry (TRF) of the lanthanide chelate. […] The plates were incubated on a shaker for 15 minutes and read at 340 nm excitation and 615 nm emission wavelengths. […] Ki values were determined by curve-fitting with Graph-Pad Prism® software using a one-site fixed-slope competition binding model. […]

systolic blood pressure = conditions: rat, in vivo
Text: In other studies, including comparisons of the same quantities of the cyclic peptide of Example 8.1 and bremelanotide by the same routes of administration, substantially similar results were obtained. […] In other studies, including comparisons of the same quantities of the cyclic peptide of Example 8.4 and bremelanotide by the same routes of administration, substantially similar results were obtained.

[2] = test system: penile erection in male Sprague-Dawley rats; experiment: Induction of penile erection in male rats; type: in vivo, rat; conditions: for observed spontaneous erections compared to vehicle controls: rat model
hMC4-R [3] = target: T1, hMC4-R; experiment: Assay for agonist activity (cAMP accumulation in HEK-293 cells expressing hMC4-R); type: cell-based
Protocol: Accumulation of intracellular cAMP is examined as a measure of the ability of the cyclic peptides of the present invention to elicit a functional response in HEK-293 cells that express MC4-R. Confluent HEK-293 cells that express recombinant hMC4-R were detached from culture plates by incubation in enzyme-free cell dissociation buffer. Dispersed cells were suspended in Earle's Balanced Salt Solution containing 10 mM HEPES (pH 7.5), 1 mM MgCl2, 1 mM glutamine, 0.5% albumin and 0.3 mM 3-isobutyl-1-methyl-xanthine (IBMX), a phosphodiesterase inhibitor. The cells were plated in 96-well plates at a density of 0.5×10^5 cells per well and pre-incubated for 30 minutes. Cells were exposed for 1 hour at 37° C. to test cyclic peptides of the present invention dissolved in DMSO (final DMSO concentration of 1%) at a concentration range of 0.05-5000 nM in a total assay volume of 200 μL. NDP-α-MSH was used as the reference agonist. At the end of the incubation period, cells were disrupted by the addition of 50 μL of lysis buffer (cAMP EIA kit, Amersham) followed by vigorous pipetting. Levels of cAMP in the lysates were determined using a cAMP EIA kit (Amersham). Data analysis was performed by nonlinear regression analysis with Graph-Pad Prism® software. The maximum efficacies of the cyclic peptides of the present invention were compared to that achieved by the reference melanocortin agonist NDP-αMSH.

hMC3-R = target: T2, hMC3-R (Homo sapiens, UniProt P41968); experiment: Competitive inhibition binding assay using NDP-α-MSH, MC3-R; conditions: competitive studies using NDP-α-MSH; human recombinant receptor
T2 construct: expressed in transfected cells; host or cells: HEK-293
T2 sequence (P41968 whole entry): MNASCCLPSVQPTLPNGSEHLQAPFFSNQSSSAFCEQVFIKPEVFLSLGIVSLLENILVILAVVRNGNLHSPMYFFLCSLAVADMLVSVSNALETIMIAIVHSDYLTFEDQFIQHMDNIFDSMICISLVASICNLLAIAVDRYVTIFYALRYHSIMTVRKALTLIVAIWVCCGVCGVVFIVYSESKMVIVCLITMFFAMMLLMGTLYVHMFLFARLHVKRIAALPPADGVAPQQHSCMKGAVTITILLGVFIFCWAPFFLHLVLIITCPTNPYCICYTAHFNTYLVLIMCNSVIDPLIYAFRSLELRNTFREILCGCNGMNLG
Protocol: (§1) A competitive inhibition binding assay is performed using membrane homogenates prepared from HEK-293 cells that express recombinant hMC4-R, hMC3-R, or hMC5-R, and from B-16 mouse melanoma cells (containing endogenous MC1-R). In some instances, HEK-293 cells that express recombinant hMC1-R were employed. In the examples that follow, all MC3-R, MC4-R and MC5-R values are for human recombinant receptors. MC1-R values are for B-16 mouse melanoma cells, unless the heading is “hMC1-R”, in which case the value is for human recombinant MC1-R. Assays were performed in 96 well GF/B Millipore multiscreen filtration plates (MAFB NOB10) pre-coated with 0.5% bovine serum albumin (Fraction V). […] Filters were dried and counted in a gamma counter for bound radioactivity. […] Maximal specific binding (100%) was defined as the difference in radioactivity (cpm) bound to cell membranes in the absence and presence of 1 μM NDP-α-MSH. […] Ki values for cyclic peptides of the present invention were determined using Graph-Pad Prism® curve-fitting software. […]
(§2) Alternatively, a competitive inhibition binding assay was performed employing Eu-NDP-α-MSH (PerkinElmer Life Sciences catalog No. AD0225) with determination by time-resolved fluorometry (TRF) of the lanthanide chelate. […] The plates were incubated on a shaker for 15 minutes and read at 340 nm excitation and 615 nm emission wavelengths. […]

hMC5-R = target: T3, hMC5-R (Homo sapiens, UniProt P33032); experiment: Competitive inhibition binding assay using NDP-α-MSH, MC5-R; conditions: competitive studies using NDP-α-MSH; human recombinant receptor
T3 construct: expressed in transfected cells; host or cells: HEK-293
T3 sequence (P33032 whole entry): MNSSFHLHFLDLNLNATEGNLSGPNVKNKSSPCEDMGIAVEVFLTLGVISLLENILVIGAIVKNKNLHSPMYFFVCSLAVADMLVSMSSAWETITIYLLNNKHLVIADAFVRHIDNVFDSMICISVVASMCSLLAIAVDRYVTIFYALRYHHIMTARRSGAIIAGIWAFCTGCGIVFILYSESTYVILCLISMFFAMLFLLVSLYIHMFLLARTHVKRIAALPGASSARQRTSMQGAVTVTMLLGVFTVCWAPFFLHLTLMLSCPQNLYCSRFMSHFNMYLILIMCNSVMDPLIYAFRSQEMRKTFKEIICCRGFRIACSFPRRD
Protocol: as §1, §2

[4] = target: T4, MC1-R (B-16 mouse melanoma cells) (Mus musculus, UniProt Q01727); experiment: Competitive inhibition binding assay using NDP-α-MSH, MC1-R; conditions: competitive studies using NDP-α-MSH
T4 construct: from B-16 mouse melanoma cells (containing endogenous MC1-R); endogenous in cells; host or cells: B-16 mouse melanoma cells
T4 sequence (Q01727 whole entry): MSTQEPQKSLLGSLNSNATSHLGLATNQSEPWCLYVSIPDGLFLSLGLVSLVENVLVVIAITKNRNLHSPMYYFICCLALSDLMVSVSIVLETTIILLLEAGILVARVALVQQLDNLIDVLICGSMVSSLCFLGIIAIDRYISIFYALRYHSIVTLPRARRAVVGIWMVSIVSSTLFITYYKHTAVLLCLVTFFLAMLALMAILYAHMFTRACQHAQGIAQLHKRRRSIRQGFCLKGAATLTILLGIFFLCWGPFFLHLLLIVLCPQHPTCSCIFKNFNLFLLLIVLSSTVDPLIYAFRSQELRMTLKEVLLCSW
Protocol: as §1

CC(=O)N[C@@H](CCCNC(=N)N)C(=O)N[C@H]1CC(=O)NCCCC[C@@H](C(N)=O)NC(=O)[C@H](Cc2c[nH]c3ccccc23)NC(=O)[C@H](CCCNC(=N)N)NC(=O)[C@@H](Cc2ccccc2)NC(=O)[C@H](CCN)NC1=O [Example 8.1, Ac-Arg-cyclo(Asp-Dab-D-Phe-Arg-Trp-Lys)-NH2]
receptor selectivity in binding (hMC4-R [1]; MC1-R, MC3-R, MC4-R and MC5-R binding compared): selective for MC4-R
increase of systolic blood pressure compared to a dose of bremelanotide producing comparable penile erection results (systolic blood pressure): less increase of systolic blood pressure
penile erections per rat per hour compared to bremelanotide (companion studies) ([2]; 3.0 μmol/kg subcutaneous vs bremelanotide 1 μmol/kg IV): same or higher penile erection results
observed spontaneous erections compared to vehicle controls ([2]; subcutaneous): statistically significant increase
spontaneous erections per rat in one hour ([2]; subcutaneous, 0.3 mg/kg, n=7): 2.286±0.286
spontaneous erections per rat in one hour ([2]; subcutaneous, 1.0 mg/kg, n=7): 4.571±1.088
functional status at MC4-R (hMC4-R [3]; functional studies): agonist

CC(=O)N[C@@H](CCCNC(=N)N)C(=O)N[C@H]1CCC(=O)NCCC[C@@H](C(N)=O)NC(=O)[C@H](Cc2c[nH]c3ccccc23)NC(=O)[C@H](CCCNC(=N)N)NC(=O)[C@@H](Cc2ccccc2)NC(=O)[C@H](CCN)NC1=O [Example 8.3, Ac-Arg-cyclo(Glu-Dab-D-Phe-Arg-Trp-Orn)-NH2]
pKi (hMC4-R [1]): 9.19
pKi (hMC3-R): 7.13
pKi (hMC5-R): 6.52
pKi [4]: 9.00
functional status at MC4-R (hMC4-R [3]; functional studies): agonist

CC(=O)N[C@@H](CCCNC(=N)N)C(=O)N[C@H]1CCC(=O)NCCC[C@@H](C(=O)O)NC(=O)[C@H](Cc2c[nH]c3ccccc23)NC(=O)[C@H](CCCNC(=N)N)NC(=O)[C@@H](Cc2ccccc2)NC(=O)[C@H](CCN)NC1=O [Example 8.4, Ac-Arg-cyclo(Glu-Dab-D-Phe-Arg-Trp-Orn)-OH]
pKi (hMC4-R [1]): 8.10
increase of systolic blood pressure compared to a dose of bremelanotide producing comparable penile erection results (systolic blood pressure): less increase of systolic blood pressure
pKi (hMC3-R): 6.39
penile erections per rat per hour compared to bremelanotide (companion studies) ([2]; 1 mg/kg subcutaneous vs bremelanotide 1 mg/kg IV): same or higher penile erection results
observed spontaneous erections compared to vehicle controls ([2]; subcutaneous): statistically significant increase
spontaneous erections per rat in one hour ([2]; subcutaneous, 0.3 mg/kg, n=7): 2.571±0.685
spontaneous erections per rat in one hour ([2]; subcutaneous, 1.0 mg/kg, n=7): 5.286±0.918
pKi (hMC5-R): 5.63
pKi [4]: 8.40
Emax (hMC4-R [3]; HEK293, NDP-α-MSH is 100%, read-out: intrinsic activity at MC4-R): 91%
functional status at MC4-R (hMC4-R [3]; functional studies): agonist
pEC50 (hMC4-R [3]; functional studies, cAMP, average of studies, read-out: EC50 at MC4-R): 8.52

CCCC[C@H](NC(C)=O)C(=O)N[C@H]1CC(=O)NCCCC[C@@H](C(=O)O)NC(=O)[C@H](Cc2c[nH]c3ccccc23)NC(=O)[C@H](CCCN=C(N)N)NC(=O)[C@@H](Cc2ccccc2)NC(=O)[C@H](Cc2cnc[nH]2)NC1=O [bremelanotide, Ac-Nle-cyclo(Asp-His-D-Phe-Arg-Trp-Lys)-OH, reference compound]
spontaneous erections per rat in one hour ([2]; IV, 1 mg/kg, n=7, positive control): 4±0.535
